{"source": "patent US5935597A", "about": "“Drug delivery devices and methods for treatment of viral and microbial infections and wasting syndromes” (Cryopreservation Technologies CC, priority 1995, dated 1999)", "key": {"[1]": {"tested_on": "virus particles, e.g. the capsid; reverse transcriptase; protease", "test": "In vitro tests of DMF on virus particles"}, "CD4+ T cell": {"tested_on": "CD4+ T cell", "test": "Example 8 pilot study: CD4+ T cell count (Coulter analysis)", "assay_type": "in vivo, human", "method": "A pilot study was conducted to evaluate the efficacy of transdermal DMF in the treatment of patients infected with HIV. Informed consent was obtained from each patient. Seropositive status was verified by Western blot using a commercial kit for detecting antibodies to p24 (Abbott Diagnostics) and the presence of HIV-1 was documented by quantitative PCR using a commercial kit (Roche Amplicor).\nDermal patches 9 cm in diameter were used within 12 hours of manufacture. […] The patches were visually inspected to verify the absence of leakage and were weighed on an analytical balance to verify less than 10% deviation from a total mass of 8.153 g. The patches were applied to the skin of the forearm and secured with Elastoplast™ bandages. Either one or two patches were used for the initial dose, as determined from the predicted skin transfer rate of 9.4 mg/cm^2 /hr and the patient's body weight.\nA staged dose of DMF was used, with two-hourly blood and urine sampling to determine peak plasma DMF levels. […] Initial evaluation included daily determination of:\nc) Coulter analysis of CD4+ and CD8+ counts and CD4/CD8 ratio;"}, "[2]": {"test": "Absorption of liquid DMF through human skin", "assay_type": "in vivo", "conditions": "two patches of diameter 9 cm, 127 cm^2 skin", "method": "For transdermal administration of a polar compound, the rate of absorption is determined by the skin of the subject. […] Accordingly, the desired rate of absorption may be achieved by controlling the surface area of the skin exposed to the drug, as by determining the area of each patch and the number of patches applied to the skin."}, "[3]": {"conditions": "cited from earlier work"}, "[4]": {"tested_on": "Human Herpes Virus 6 (HHV-6)", "conditions": "certain cultured cell lines; cited from earlier work"}, "[5]": {"conditions": "water, alcohols and some hydrocarbons; cited from earlier work"}}}
{"smiles": "CN(C)C=O", "note": "[DMF, N,N'-dimethylformamide]", "values": [{"measurement": "effect on virus particles", "setting": "[1]; in vitro", "result": "it appears that the solvent properties of DMF dissolve the virus particles, e.g. the capsid"}, {"measurement": "apparent mode of action", "setting": "[1]; it appears as if", "result": "acts as at least one of a reverse transcriptase inhibitor and a protease inhibitor"}, {"measurement": "CD4+ T cell count", "setting": "CD4+ T cell; Patient 1, after 7 weeks, from 39", "result": 138, "unit": "cells/μl"}, {"measurement": "CD4+ T cell count", "setting": "CD4+ T cell; Patient 2, after 9 weeks, from 460", "result": 720, "unit": "cells/μl"}, {"measurement": "CD4+ T cell count", "setting": "CD4+ T cell; Patient 3, after 9 weeks, from 140", "result": 640, "unit": "cells/μl"}, {"measurement": "CD4+ T cell count", "setting": "CD4+ T cell; Patient 4, after 18 weeks, from 249", "result": 450, "unit": "cells/μl"}, {"measurement": "CD4+ cell count", "setting": "CD4+ T cell; Patient 5, after 19 weeks, from 260", "result": 450, "unit": "cells/μl"}, {"measurement": "CD4+ T cell count", "setting": "CD4+ T cell; Patient 6, after 5 weeks, from 354", "result": 396, "unit": "cells/μl"}, {"measurement": "CD4+ T cell count", "setting": "CD4+ T cell; Patient 7, after 9 treatments, initial 29", "result": 35, "unit": "cells/μl"}, {"measurement": "CD4+ T cell count", "setting": "CD4+ T cell; Patient 7, after the first treatment, initial 29", "result": 14, "unit": "cells/μl"}, {"measurement": "CD4+ T cell count", "setting": "CD4+ T cell; Patient 8, after 8 weeks, from 200", "result": 240, "unit": "cells/μl"}, {"measurement": "increase in CD4+ T cell counts", "setting": "CD4+ T cell; after 42 days, Gompertz curve fit, seven out of eight patients", "result": 73.4, "unit": "%"}, {"measurement": "absorption rate", "setting": "[2]", "result": "about 1.2 g of DMF per hour"}, {"measurement": "acute toxicity", "setting": "[3]; dermal, oral and inhalation", "result": "low acute dermal, oral and inhalation toxicity"}, {"measurement": "hepatic toxicity", "setting": "[3]; in vivo", "result": "reversible hepatic damage"}, {"measurement": "mutagenicity and carcinogenicity", "setting": "[3]; in vivo", "result": "not thought to be a mutagen or a carcinogen"}, {"measurement": "skin and eye irritation", "setting": "[3]; in vivo", "result": "mild to moderate skin and eye irritant"}, {"measurement": "skin sensitization", "setting": "[3]; in vivo", "result": "no indication of skin sensitizing properties"}, {"measurement": "teratogenicity", "setting": "[3]; in vivo", "result": "teratogenic"}, {"measurement": "in vitro replication of HHV-6", "setting": "[4]", "result": "inhibit in vitro replication of HIV and Human Herpes Virus 6 (HHV-6)"}, {"measurement": "miscibility", "setting": "[5]", "result": "freely miscible with water, alcohols and some hydrocarbons"}]}
